The text below walks through data of publication PMC6083370, “Influence of OATPs on Hepatic Disposition of Erlotinib Measured With Positron Emission Tomography” (Clinical Pharmacology and Therapeutics, 2017).

In data set [1] the target is T1, OATP2B1 (SLCO2B1) (Homo sapiens, UniProt O94956).
T1 sequence (O94956 1-709): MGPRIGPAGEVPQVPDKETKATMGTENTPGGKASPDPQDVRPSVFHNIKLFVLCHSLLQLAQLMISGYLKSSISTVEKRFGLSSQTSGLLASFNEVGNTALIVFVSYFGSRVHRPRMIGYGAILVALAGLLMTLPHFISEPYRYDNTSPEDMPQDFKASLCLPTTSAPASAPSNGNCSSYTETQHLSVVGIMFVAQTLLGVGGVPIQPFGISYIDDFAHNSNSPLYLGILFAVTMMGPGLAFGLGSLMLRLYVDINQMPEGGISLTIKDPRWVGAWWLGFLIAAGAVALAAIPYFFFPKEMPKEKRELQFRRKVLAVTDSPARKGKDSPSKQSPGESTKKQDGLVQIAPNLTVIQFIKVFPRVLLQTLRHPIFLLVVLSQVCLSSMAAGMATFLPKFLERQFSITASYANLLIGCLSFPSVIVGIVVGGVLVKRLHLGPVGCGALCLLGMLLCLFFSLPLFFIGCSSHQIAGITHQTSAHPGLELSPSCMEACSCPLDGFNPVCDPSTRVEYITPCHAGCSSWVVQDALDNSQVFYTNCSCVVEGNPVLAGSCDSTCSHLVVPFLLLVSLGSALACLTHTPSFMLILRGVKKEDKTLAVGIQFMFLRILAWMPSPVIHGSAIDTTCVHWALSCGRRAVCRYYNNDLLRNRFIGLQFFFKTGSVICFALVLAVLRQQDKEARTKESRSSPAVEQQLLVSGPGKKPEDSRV
Method: OATP overexpression was confirmed by Western blotting. Functionality of the OATPs was verified by [^3H]estrone-3-sulfate uptake experiments. A431 cells transfected with the empty vector were used as a negative control. All cell lines were cultured in Dulbecco's modified eagle medium supplemented with 10% fetal bovine serum, 2 mM L-glutamine, 100 units/mL penicillin and 100 µg/mL streptomycin. […] On the day of the experiment, growth medium was aspired and cells were washed with pre-warmed transport buffer (Hank's balanced salt solution supplemented with 10 mM N-2-hydroxyethylpiperazine-N-2-ethane sulfonic acid). […] Then the drug solutions were removed and cells were washed with pre-warmed transport buffer. […] For time dependency experiments, pre-warmed transport buffer was added and cells were incubated for 30 min. […] For concentration dependency experiments, pre-warmed transport buffer was added and cells were incubated for 30 min. […] In all experiments, cell count was determined on separate 24-well tissue culture plates before or after each experiment. In all experiments, radiotracer solutions were aspired following incubation and cells were washed twice with ice-cold transport buffer. […] Each inhibition experiment was performed 2 times with 3 technical replicates each and radioactivity in cells was corrected for radioactive decay, normalized to 10^6 cells and expressed as percent of vector control (% control). The time dependency experiment was performed once with 3 technical replicates and radioactivity in cells was corrected for radioactive decay and expressed as percent of applied dose per 10^6 cells (%AD/10^6 cells). The concentration dependency experiment was performed once with 3 technical replicates and radioactivity in cells was corrected for radioactive decay. Kinetic parameters were determined using a previously described method.^2 In brief, cellular radioactivity uptake was converted into units of pmol/min/10^6 cells. OATP2B1-specific uptake of erlotinib was determined by subtracting the uptake into cells transfected with the empty vector from the uptake into cells transfected with OATP2B1. The following equation was used to obtain kinetic parameters:
where v is the uptake velocity of erlotinib (pmol/min/10^6 cells), S is the erlotinib concentration in the transport buffer (µM), Km is the Michaelis constant (µM), Vmax is the maximum uptake velocity (pmol/min/10^6 cells), and Pdif is the non-saturable uptake clearance (µL/min/10^6 cells). Curve fitting was performed by the non-linear regression method with a modified Michaelis-Menten model according to equation 1 using Prism 6.0 software (GraphPad Software).

For data set [2], the target named is T2, OATP1B1 (SLCO1B1) (Homo sapiens, UniProt Q9Y6L6).
T2 sequence (Q9Y6L6 1-691): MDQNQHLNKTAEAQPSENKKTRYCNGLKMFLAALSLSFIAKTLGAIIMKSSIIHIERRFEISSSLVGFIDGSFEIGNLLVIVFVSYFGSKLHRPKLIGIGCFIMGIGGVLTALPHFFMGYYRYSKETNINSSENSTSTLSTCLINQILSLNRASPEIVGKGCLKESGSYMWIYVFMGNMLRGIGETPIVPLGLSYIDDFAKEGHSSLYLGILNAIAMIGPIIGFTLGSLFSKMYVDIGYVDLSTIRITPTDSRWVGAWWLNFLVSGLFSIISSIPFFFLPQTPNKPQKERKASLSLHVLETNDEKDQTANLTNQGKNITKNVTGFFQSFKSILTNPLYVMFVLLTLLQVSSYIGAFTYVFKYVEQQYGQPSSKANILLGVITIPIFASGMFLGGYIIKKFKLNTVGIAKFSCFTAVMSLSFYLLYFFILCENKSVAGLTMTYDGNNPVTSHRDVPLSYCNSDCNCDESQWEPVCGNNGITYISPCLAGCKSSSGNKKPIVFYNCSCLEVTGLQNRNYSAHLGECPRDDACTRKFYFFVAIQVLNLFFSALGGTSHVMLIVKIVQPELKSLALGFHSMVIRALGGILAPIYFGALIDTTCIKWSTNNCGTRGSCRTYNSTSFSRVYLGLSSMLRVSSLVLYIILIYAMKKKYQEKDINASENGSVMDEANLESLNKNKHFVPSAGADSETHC
To be noted: erlotinib 1 μM, cyclosporine A 10 μM, rifampicin 100 μM; 5 min.
Method: A431 cells transfected with the empty vector were used as a negative control. All cell lines were cultured in Dulbecco's modified eagle medium supplemented with 10% fetal bovine serum, 2 mM L-glutamine, 100 units/mL penicillin and 100 µg/mL streptomycin. […] On the day of the experiment, growth medium was aspired and cells were washed with pre-warmed transport buffer (Hank's balanced salt solution supplemented with 10 mM N-2-hydroxyethylpiperazine-N-2-ethane sulfonic acid). […] Then the drug solutions were removed and cells were washed with pre-warmed transport buffer. […] For time dependency experiments, pre-warmed transport buffer was added and cells were incubated for 30 min. […] In all experiments, cell count was determined on separate 24-well tissue culture plates before or after each experiment. […] Each inhibition experiment was performed 2 times with 3 technical replicates each and radioactivity in cells was corrected for radioactive decay, normalized to 10^6 cells and expressed as percent of vector control (% control). The time dependency experiment was performed once with 3 technical replicates and radioactivity in cells was corrected for radioactive decay and expressed as percent of applied dose per 10^6 cells (%AD/10^6 cells). The concentration dependency experiment was performed once with 3 technical replicates and radioactivity in cells was corrected for radioactive decay. […]

The test system of data set [3] is OATP1B3. To be noted: read-out: IC50 for inhibition of OATP1B3; cited from earlier work.
For data set [4] the following is noted: cited from earlier work.
Data set [5] relates to OATP1B3. The conditions noted are these: cited from earlier work.
Data set [6] concerns MRP4. Details: method as in PMID 21088257. To be noted: cited from earlier work.

Usually IC50 stands for the concentration that gives 50% inhibition. Broadly, the logP is a log measure of how a compound divides between an organic and an aqueous phase.

With `C#Cc1cccc(Nc2ncnc3cc(OCCOC)c(OCCOC)cc23)c1` [erlotinib], the “Michaelis constant (K m) of the saturable component of OATP2B1‐specific uptake” value in data set [1] (7.5 min, erlotinib 0.05–2.05 μM, ± standard error) worked out at 0.32 µM. Further, the “effect on [^11C]erlotinib uptake in OATP2B1 overexpressing cells” value in data set [1] (erlotinib 1 μM, cyclosporine A 10 μM, rifampicin 100 μM, 5 min) is recorded as “significantly decreased”. Besides, the “effect on [^11C]erlotinib uptake in OATP1B1 overexpressing cells” value in data set [2] is given as “no effect”. For the same compound, the concentration for half-maximal inhibition (IC50) in data set [3] is 1190 nM. For the same compound, in data set [4], the lipophilicity (logP) is on record as 4.19. Also, the “transport by OATP1B3” value in data set [5] was “not to be transported”. Further, the “transport by MRP4” value in data set [6] was “not to be transported”.
